Usually DC50 stands for the midpoint of the concentration-degradation curve.

T1 sequence (P01116 1-188 isoform P01116-2 G12D): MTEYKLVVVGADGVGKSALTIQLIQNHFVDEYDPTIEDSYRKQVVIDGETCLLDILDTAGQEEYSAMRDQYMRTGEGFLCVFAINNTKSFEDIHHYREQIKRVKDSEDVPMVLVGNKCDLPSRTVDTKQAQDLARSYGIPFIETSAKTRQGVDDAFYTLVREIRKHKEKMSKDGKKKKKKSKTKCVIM

This assay addresses T1, KRAS (G12D) (Homo sapiens, UniProt P01116, G12D).
T1 construct: in-cell western with KRAS G12D antibody after 24 h
Put plainly: KRAS (G12D) cellular degradation assay in AsPC-1 cells. It counts as cell-based. Particulars: 24 hours, antibody fluorescence (Odyssey CLX), DC50 half-maximal degradation concentration. The gist of the method:
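Read-outs were KRAS G12D immunofluorescence against β-actin after 24 h (DC50) and CellTiter Glo luminescence after 6 days (IC50). Compounds were titrated 1:3 from […] to 1.5 nM final on AsPC-1 cells at 37 °C, 5% CO2.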
`CCn1nccc1-c1ccc([C@H](CO)NC(=O)[C@@H]2C[C@@H](O)CN2C(=O)[C@H](C(C)C)n2cc(-c3ccc(COc4c(-c5c(C)c(F)cc6[nH]ncc56)c(C5CC5)cc5c(N(C)C[C@H]6CCCN6)nc(OC[C@H](C)OC)nc45)cc3)nn2)cc1` [Example 218, (2S,4R)-1-((2S)-2-(4-(4-(((6-cyclopropyl-7-(6-fluoro-5-methyl-1H-indazol-4-yl)-2-((S)-2-methoxypropoxy)-4-(methyl(((R)-pyrrolidin-2-yl)methyl)amino)quinazolin-8-yl)oxy)methyl)phenyl)-1H-1,2,3-triazol-1-yl)-3-methylbutanoyl)-N—((R)-1-(4-(1-ethyl-1H-pyrazol-5-yl)phenyl)-2-hydroxyethyl)-4-hydroxypyrrolidine-2-carboxamide] displayed a 50% degradation concentration (DC50) of over 1000 nM.

Consider `CO[C@@H](C)COc1nc(N2CCCNCC2)c2cc(C3CC3)c(-c3c(C)c(F)cc4[nH]ncc34)c(OCc3ccc(-c4cn([C@H](C(=O)N5C[C@H](O)C[C@H]5C(=O)N[C@@H](CO)c5ccc(-c6scnc6C)c6c5CC6)C(C)C)nn4)cc3)c2n1` [Example 219, (2S,4R)-1-((2S)-2-(4-(4-(((6-cyclopropyl-4-(1,4-diazepan-1-yl)-7-(6-fluoro-5-methyl-1H-indazol-4-yl)-2-((S)-2-methoxypropoxy)quinazolin-8-yl)oxy)methyl)phenyl)-1H-1,2,3-triazol-1-yl)-3-methylbutanoyl)-4-hydroxy-N—((R)-2-hydroxy-1-(5-(4-methylthiazol-5-yl)bicyclo[4.2.0]octa-1(6),2,4-trien-2-yl)ethyl)pyrrolidine-2-carboxamide], for which the DC50 is under 10 nM.

`CCn1nccc1-c1ccc([C@@H](NC(=O)[C@@H]2C[C@@H](O)CN2C(=O)[C@H](C(C)C)n2cc(-c3ccc(COc4c(-c5c(C)c(F)cc6[nH]ncc56)c(C5CC5)cc5c(N(C)[C@@H]6CCNC6)nc(O[C@H]6C[C@H](OC)C6)nc45)cc3)nn2)[C@H](C)O)cc1F` [Example 220, (2S,4R)-1-((2S)-2-(4-(4-(((6-cyclopropyl-7-(6-fluoro-5-methyl-1H-indazol-4-yl)-2-((1r,3R)-3-methoxycyclobutoxy)-4-(methyl((R)-pyrrolidin-3-yl)amino)quinazolin-8-yl)oxy)methyl)phenyl)-1H-1,2,3-triazol-1-yl)-3-methylbutanoyl)-N-((1R,2S)-1-(4-(1-ethyl-1H-pyrazol-5-yl)-3-fluorophenyl)-2-hydroxypropyl)-4-hydroxypyrrolidine-2-carboxamide] came in with a DC50 of under 10 nM.

Regarding `CO[C@@H](C)COc1nc(N2CCCNCC2)c2cc(C3CC3)c(-c3c(C)c(F)cc4[nH]ncc34)c(OCc3ccc(-c4cn([C@H](C(=O)N5C[C@H](O)C[C@H]5C(=O)N[C@H](CO)c5ccc(-c6scnc6C)c6c5CC6)C(C)C)nn4)cc3)c2n1` [Example 221, (2S,4R)-1-((2S)-2-(4-(4-(((6-cyclopropyl-4-(1,4-diazepan-1-yl)-7-(6-fluoro-5-methyl-1H-indazol-4-yl)-2-((S)-2-methoxypropoxy)quinazolin-8-yl)oxy)methyl)phenyl)-1H-1,2,3-triazol-1-yl)-3-methylbutanoyl)-4-hydroxy-N—((S)-2-hydroxy-1-(5-(4-methylthiazol-5-yl)bicyclo[4.2.0]octa-1(6),2,4-trien-2-yl)ethyl)pyrrolidine-2-carboxamide], the DC50 was 100 to 1000 nM.

Consider `CCn1nccc1-c1ccc([C@H](CO)NC(=O)[C@@H]2C[C@@H](O)CN2C(=O)[C@H](C(C)C)n2cc(-c3ccc(COc4c(-c5c(C)c(F)cc6[nH]ncc56)c(C5CC5)cc5c(N6C[C@H]7CN[C@H](C7)C6)nc(OC[C@H](C)OC)nc45)cc3)nn2)cc1` [Example 222, (2S,4R)-1-((2S)-2-(4-(4-(((4-((1R,5R)-3,6-diazabicyclo[3.2.1]octan-3-yl)-6-cyclopropyl-7-(6-fluoro-5-methyl-1H-indazol-4-yl)-2-((S)-2-methoxypropoxy)quinazolin-8-yl)oxy)methyl)phenyl)-1H-1,2,3-triazol-1-yl)-3-methylbutanoyl)-N—((R)-1-(4-(1-ethyl-1H-pyrazol-5-yl)phenyl)-2-hydroxyethyl)-4-hydroxypyrrolidine-2-carboxamide], for which the DC50 is 10 to 100 nM.

The record behind these values is patent US20260295053A1, “COMPOUNDS FOR DEGRADATION AND INHIBITION OF KRAS (G12D) PROTEIN” (Shenzhen Ionova Life Science Co., Ltd., priority 2023, published 2026).
